Assay results: paper PMC12290954, “Synthesis, Characterization, Computational Evaluation, CO-Releasing Properties, and Molecular Docking Interactions of New [Mn(CO)3(bpy)L]PF6‑Type Molecules” (ACS Omega, 2025)

Legend:
[1] = test system: deoxymyoglobin; test: Myoglobin assay, CO release under 365 nm UV light; conditions: 365 nm lamp; for [MbCO] / Half-life t 1/2 (50% of total CO release) / Released-CO Equivalent: 15 μM complex, pH 7.4; for [MbCO]: 60 μM myoglobin reduced with sodium dithionite; for Half-life t 1/2 (50% of total CO release) / Released-CO Equivalent: 60 μM myoglobin; for Released-CO Percent: percent of the total CO
Method: The myoglobin solution, which was prepared in PBS (pH 7.4, 0.1 M), was reduced to deoxymyoglobin using sodium dithionite (100 mM). The solutions of each complex ([…]) in DMSO were incubated with deoxymyoglobin solution ([…]), and the final solution was exposed to 365 nm UV light from a distance of 2 cm. Deoxymyoglobin has a band at 557 nm, while carbonmonoxy-myoglobin has two identical bands at 540 and 577 nm, and the changes at these wavelengths make the process observable and determinable. Thus, the CO-releasing properties of the molecules were calculated using the Lambert–Beer Law.
The commonly used method for determining the CO-releasing of a molecule is UV–visible spectroscopy. There are various ways for releasing CO from a molecule such as substitution, decomposition, and photoactivation. , Manganese carbonyl complexes are known as photoactivatable CO-releasing molecules (photoCORM). A photoCORM must be stable in the dark while it releases CO upon exposure to light of a certain wavelength. […] The basic principle of the myoglobin assay is based on the formation of carbon monoxymyoglobin with the interaction of deoxymyoglobin with CORMs by the spectrophotometric method. […] A 15 μM solution of the complexes was incubated with a 60 μM myoglobin solution reduced with sodium dithionite in a pH 7.4 buffered medium, and the change was followed by the spectroscopic method. The CO-releasing properties of a molecule could be evaluated from two perspectives: the first is how fast the molecule’s release is, and the second is how high the rate of the releasing is.

[2] = test system: CT-DNA; test: DNA binding analysis, UV-vis, Benesi-Hildebrand method; conditions: 25 μM DNA, 0-35 μM complex, Tris-HCl pH 7.4, 1 h room temperature, absorbance at 260 nm
Method: DNA-binding properties of the molecules were analyzed with the Benesi–Hildebrand method with UV–vis spectroscopy. The stock solution of manganese complexes (3 mM) was prepared with DMSO, while a fresh stock solution of DNA from commercial CT-DNA was prepared in Tris-HCl buffer solution (pH = 7.4), and the ratio of A 260/A 280 of the DNA stock was recorded as 1.93. A certain concentration of DNA (25 μM) solution was incubated with different amounts of each complex (0, 5, 10, 15, 20, 25, 30, and 35 μM) for 1 h at room temperature. The absorption spectra of all solutions were recorded using a Shimadzu UV-1800 spectrophotometer between 240 and 500 nm.
In this study, the DNA-binding affinity of the molecules was also confirmed with a UV–vis spectrophotometer. […] While small fluctuations for 300 μM of each complex were recorded upon the addition of DNA solutions with different concentrations (0, 20, 40, 60, 80, 100, 120, and 140 μM) at 388 nm (Figures S6–S10), remarkable changes were detected at 260 nm, which is characteristic of DNA.
Here, A o is the absorbance of DNA in the absence of the manganese complex, A obs is the absorbance of DNA at 260 nm with different amounts of the molecules, [M] is the molar concentration of the molecules, and K b is the binding constant. […] These binding constants are moderately available for DNA-target drug candidates.

[3] = molecular target: BSA (Bos taurus, UniProt P02769); test: BSA binding analysis, UV-vis, Benesi-Hildebrand method; parameters: species or system bovine; conditions: 15 μM BSA, 0-14 μM complex, PBS pH 7.4, 20 min room temperature, band at 280 nm
Sequence of BSA (P02769 25-607): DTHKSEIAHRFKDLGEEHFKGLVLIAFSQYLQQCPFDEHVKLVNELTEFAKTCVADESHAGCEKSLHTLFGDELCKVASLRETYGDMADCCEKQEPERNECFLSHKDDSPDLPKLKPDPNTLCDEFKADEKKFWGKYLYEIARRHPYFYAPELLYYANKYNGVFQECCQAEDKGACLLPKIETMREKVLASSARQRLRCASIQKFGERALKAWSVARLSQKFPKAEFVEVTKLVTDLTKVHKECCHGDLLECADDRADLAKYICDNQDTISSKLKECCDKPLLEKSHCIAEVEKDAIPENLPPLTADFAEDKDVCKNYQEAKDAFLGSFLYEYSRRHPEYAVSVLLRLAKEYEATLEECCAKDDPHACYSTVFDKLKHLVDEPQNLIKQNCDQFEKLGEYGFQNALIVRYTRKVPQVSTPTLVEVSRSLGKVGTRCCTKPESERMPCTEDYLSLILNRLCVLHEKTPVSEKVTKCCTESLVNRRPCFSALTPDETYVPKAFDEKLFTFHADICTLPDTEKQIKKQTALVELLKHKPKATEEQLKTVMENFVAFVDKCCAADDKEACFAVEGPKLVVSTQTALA
Method: BSA binding analysis of the molecules was performed with UV–vis spectroscopy, and the records were evaluated using the Benesi-Hildebrand equation. The BSA stock solution was freshly prepared in phosphate-buffered saline (pH 7.4), while the stock solutions of the molecules were prepared in DMSO. A certain BSA solution (15 μM) was incubated with each molecule at different concentrations (0, 2, 4, 6, 8, 10, 12, and 14 μM) for 20 min at room temperature. The absorption spectra of all solutions were recorded between 250 and 350 nm.

Compound | [MbCO] [1] [µM] | Half-life t 1/2 (50% of total CO release) [1] [min] | Released-CO Equivalent [1] | Released-CO Percent [1] [%] | DNA binding constant K b [2] | BSA binding constant [3]
[Mn(CO)3(bpy)(1-isopropylbenzimidazole)]PF6 [2a] | 34.64 | 4.02 | 2.30 | 77 | 3.2 × 10^4 M^–1 | 3.6 × 10^4 M^–1
[Mn(CO)3(bpy)(1-(3,3-dimethylallyl)benzimidazole)]PF6 [2d] | 30.34 | – | 2.02 | 67 | 2.4 × 10^4 M^–1 | 8.2 × 10^4 M^–1
[Mn(CO)3(bpy)(1-(2-metallyl)benzimidazole)]PF6 [2c] | 39.81 | – | 2.65 | 88 | 1.8 × 10^4 M^–1 | 4.0 × 10^4 M^–1
[Mn(CO)3(bpy)(1-(2-vinyloxyethyl)benzimidazole)]PF6 [2e] | 40.41 | – | 2.69 | 90 | 2.7 × 10^4 M^–1 | 3.9 × 10^4 M^–1
C=CCn1c[n+]([Mn-2]2(=[C]=O)(=[C]=O)(=[C]=O)[n+]3ccccc3-c3cccc[n+]32)c2ccccc21.F[P-](F)(F)(F)(F)F [2b, [Mn(CO)3(bpy)(1-allylbenzimidazole)]PF6] | 39.51 | 4.85 | 2.63 | 88 | 2.2 × 10^4 M^–1 | 4.3 × 10^4 M^–1
